Measurements reported in patent US6423855B1, “Cytoprotective compounds” (Virginia Commonwealth University, priority 1996, dated 2002).

What was measured:
[1] = system: thrombin-stimulated platelets; assay: serotonin release by thrombin-stimulated platelets; type: cell-based
Description: (§1) Applicants have also observed that PX-13 inhibited serotonin release by thrombin-stimulated platelets. This observation supports the contention that the PX compounds of the present invention may block release of inflammatory mediators in the coagulation cascade. This observation also supports the use of PX compounds to inhibit thrombin-induced platelet aggregation and to act as anti-clotting agents.

[2] = system: epidermis cell turnover; assay: cell turnover rate (dansyl chloride); type: in vivo, human
Procedure: Two PX compounds PX-11 and PX-13 were evaluated in a cream formulation prepared under GMP. The chemicals were formulated into a bland cream and evaluated in the following human or mouse skin tests: (1) occluded patch test for irritation; (2) cell turnover rate; (3) transepidermal water loss; (4) skin moisturization; and (5) reduction in erythema after induced sunburn. The human skin tests were conducted on three volunteer female subjects, ages 29-32; a cream base with no added active was included as a control, while the untreated skin served as an additional basis for evaluation. Sunburn tests were performed on a total of 30 hairless albino mice. 2. Cell turnover rate: This parameter was measured by adsorption of dansyl chloride, in which 3% dansyl chloride was incorporated into petrolatum. This salve was applied over a 2.5 cm diameter circular area in the upper arm and a patch applied. 24 hours later the patch was removed. The intensity of dansyl chloride fluorescence was indicative of the cell turnover rate in the epidermis.

[3] = system: mice; assay: acute toxicity (LD50 study), single IP dose; type: in vivo
Procedure: An LD50 study was conducted to determine a lethal dose for PX-13 suspended in HEPES buffer at a pH of 7.4. A single IP dose of 50, 100, 200 or 400 mg/kg was administered to mice (n=6 per group). […] No necropsy was performed.

[4] = system: rat dorsal root ganglion cells; assay: cultured rat dorsal root ganglion cells exposed to human disc PLA2; type: cell-based
Procedure: Primary cultures of rat dorsal root ganglion cells were used. Cells were washed 3-times with media to remove serum. Then, PX-13 (20 uM) in HEPES buffer or a buffer control was applied to the cells. After 10 min of incubation, purified human disc PLA2 (activity 1 umol/min) was added and the cells were incubated for an additional 60-90 min. Cells were then observed, fixed, and photographed 1.5 hrs after addition of PLA2.

[5] = system: reflex sympathetic dystrophy (RSD); assay: topical cream in patients with reflex sympathetic dystrophy; type: in vivo, human
Procedure: A patient presents with severe RSD characterized by persistent pain and limitation of movement at the wrist joint. […] Another patient presents with a two year history of RSD in the knee joint. This patient previously received arthroscopic evaluations. This patient also had limited range of motion and became addicted to narcotics in an attempt to reduce pain. […] The reduction in pain is immediate and the increased range of motion occurs within 10-20 minutes. This patient, who had been unemployed for an extended period, eliminated intake of narcotics and returned to work. A third patient presented with RSD of the foot and ankle. This patient had no eversion or inversion of the foot.

[6] = system: epidermal layer; assay: transepidermal water loss; type: in vivo, human
Procedure: Two PX compounds PX-11 and PX-13 were evaluated in a cream formulation prepared under GMP. The chemicals were formulated into a bland cream and evaluated in the following human or mouse skin tests: (1) occluded patch test for irritation; (2) cell turnover rate; (3) transepidermal water loss; (4) skin moisturization; and (5) reduction in erythema after induced sunburn. The human skin tests were conducted on three volunteer female subjects, ages 29-32; a cream base with no added active was included as a control, while the untreated skin served as an additional basis for evaluation. Sunburn tests were performed on a total of 30 hairless albino mice. 3. Transepidermal water loss. This parameter was measured by affixing a flow cell on the forearm site, applying the cream, waiting 20 minutes, then flushing the volume with nitrogen and noting the moisture content of the effluent gases.

[7] = system: human blood cells; assay: preservation of whole blood (LDH and hemoglobin release); type: cell-based
Procedure: The effect of PX-13 and mepacrine on whole blood cell viability were tested as a function of time of storage.
Heparinized human blood was centrifuged at 400×g and the resulting plasma was removed and replaced with an equal volume of Dulbecco's medium. The resuspended cells were then incubated at 37° C. for 0-72 hrs. in a shaking water bath. At the indicated times, a 0.8 ml aliquot was removed and centrifuged at 400×g to sediment cells. Appearance of lactate dehydrogenase (LDH) and hemoglobin in the supernate was indicative of cell injury. PX-13 and mepacrine stabilized cells and decreased the injury as evidenced by diminished levels of LDH and hemoglobin in the supernate. This is expressed as percent protection.

[8] = therapeutic index LD50/ED50
[9] = system: ultraviolet-induced erythema; assay: protection against ultraviolet-induced erythema; type: in vivo, hairless albino mice; conditions: 1 = Best, 4 = Worst
Procedure: The human skin tests were conducted on three volunteer female subjects, ages 29-32; a cream base with no added active was included as a control, while the untreated skin served as an additional basis for evaluation. Sunburn tests were performed on a total of 30 hairless albino mice.
5.Protection against ultraviolet-induced ervthema. The protection against ultraviolet-induced erythema (i.e., the burn and irritation produced after exposure to ultraviolet radiation), was measured by first irradiating 12 mice with destructive 3130 angstrom (Å) rays, applying the creams, and then evaluating the skin cells for erythema.

[10] = system: purified human disc PLA2 induced paw edema; assay: human disc PLA2-induced mouse paw edema; type: in vivo
Procedure: Edema was induced by injection of 1 ug of purified human disc PLA2 into the mouse footpad. PX-13 was administered either by gavage or intraperitoneally (IP) 60 min prior to enzyme challenge. Forty-five min after enzyme injection, the animals were sacrificed and the control and injected paws were removed and weighed to assess edema.

[11] = system: platelets; assay: platelet aggregation; type: cell-based; conditions: 25-μM dose
Description: as §1

[12] = system: PLA2 activity in extracts of rat bowel; assay: PLA2 activity in extracts of rat bowel; type: biochemical
[13] = patient 2, knee, cream combined with sympathetic blockade

## CCCCCCCC/C=C\CCCCCCCC(=O)OCC(COC(=O)CCCCCCC/C=C\CCCCCCCC)(COC(=O)CCCCCCC/C=C\CCCCCCCC)NCCS(=O)(=O)O [PX-13, 2-[Tris(oleoyloxymethyl)methylamino]-1-ethanesulfonic acid]
[1]
  serotonin release: inhibited
[2]; cream-treated skin, upper arm
  Days to Cell Renewal Treated: 21.6 days
[2]; treated vs untreated skin
  % Change in Cell Turnover Time: −29%
[3]; 400 mg/kg group, n=6
  deaths at 144 hrs: one animal in the 400 mg/kg group died
[3]; mouse, in vivo
  tolerability: extremely well tolerated
[4]; 20 uM alone
  cell morphology, compound alone: indistinguishable from control cultures
[4]; 20 uM, PLA2 activity 1 umol/min, 60-90 min
  cell morphology, compound + human disc PLA2: indistinguishable from control cultures
[5]; patient 1, wrist, about 4% in cream of Example 15, topical
  pain relief: immediate pain relief
[5]; [13]
  pain and range of motion: decreases the patient's report of pain and provides a full range of motion
  time to increased range of motion: 10 to 20 min
[5]; patient 3, foot and ankle, about 4% cream
  time to full eversion and inversion: ≤ 20 min
[5]; patient 3, foot and ankle, about 4% in cream vehicle
  pain relief: immediate and complete pain relief
[6]; forearm, 20 minutes after applying cream
  % Change in Transepidermal Water Loss: −8.5%
[6]; in vivo
  effect on water loss from the epidermal layer: functioned as an occluding moisturizer
[7]; 20 uM, 48 hr
  Percent Protection Hemoglobin: 55%
[7]; 20 uM, 48 hr, 37° C.
  Percent Protection LDH: 22%
[7]; 20 uM, 72 hr
  Percent Protection Hemoglobin: 25%
  Percent Protection LDH: 15%
[7]; 80 uM, 48 hr
  Percent Protection Hemoglobin: 72%
  Percent Protection LDH: 39%
[7]; 80 uM, 72 hr
  Percent Protection Hemoglobin: 54%
  Percent Protection LDH: 41%
[7]; 160 uM, 48 hr
  Percent Protection Hemoglobin: 77%
  Percent Protection LDH: 78%
[7]; 160 uM, 72 hr
  Percent Protection Hemoglobin: 80%
  Percent Protection LDH: 72%
[8]
  therapeutic index (LD50/ED50): a large positive number
[9]; Mean
  Post-Radiation Erythema Ranking Mean: 4.7
[9]; Subject 3
  Post-Radiation Erythema Ranking: 4
[10]; 20 mg/kg gavage, 60 min prior to enzyme, paws weighed 45 min after
  Percent Protection: 33%
[10]; 40 mg/kg IP
  Percent Protection: 48%
[10]; 40 mg/kg gavage
  Percent Protection: 55%
[10]; 60 mg/kg gavage
  Percent Protection: 63%
[11]
  platelet aggregation: inhibited
[12]
  effectiveness as PLA2 inhibitor relative to mepacrine: more than 2 log units
  inhibition of PLA2 activity: inhibited
